# In US12570661B2, “Isoform-specific aldehyde dehydrogenase inhibitors” (The Board of Trustees of the Leland Stanford Junior …, priority 2020, dated 2026):
# pIC50: −log10 of the molar value.
# What was measured:
# [1] = system: 5-FU-resistant SW480 cells; assay: Spheroid growth of 5-FU-resistant versus parental SW480 cells; type: cell-based, human; details: spheroid culture
# Description: The parental SW480 cells were cultured in RPMI-1640 medium containing 10% FBS, 100 U/mL penicillin, 100 μg/mL streptomycin, and 1 μM 5-FU for two weeks. The 5-FU concentration in the culture medium was then increased to 5 μM and after another two weeks raised further to 10 μM. The resulting 5-FU-resistant SW480 cells were maintained in culture medium with 10 μM 5-FU.
# To prepare Matrigel-coated culture plates, 96-well and 24-well plates were placed on ice and coated with 25 μL or 300 μL, respectively, of Matrigel matrix (Corning, LDEV-free) that had been thawed overnight at 4° C. The plates were then placed in a 37° C. incubator for 30 min to allow the Matrigel to solidify. […]
# SW480 or HCT116 cells were seeded into regular or Matrigel-coated 96-well plates at a density of 1000 cells/well. […] Each culture was maintained for 7 days, and then cell viabilities were measured using a CellTiter-Glo 3D Cell Viability Assay kit (Promega). […] A 150-μL aliquot from each well was then transferred into a white opaque 96-well assay plate (flat-bottom and non-treated; Corning Costar) and luminescence intensities were measured with a Veritas microplate luminometer (Turner BioSystems).
# ALDH1B1 [2] = molecular target: T1, ALDH1B1 (Homo sapiens, UniProt P30837); assay: ALDEFLUOR assay of cellular ALDH1B1 activity in ALDH1B1-transfected ALDH1A3−/− A375 cells; type: cell-based; details: ALDEFLUOR, ALDH1B1-overexpressing ALDH1A3−/− A375 cells; read-out: ALDH1B1(in cellulo) IC50
# T1 sequence (P30837 18-517): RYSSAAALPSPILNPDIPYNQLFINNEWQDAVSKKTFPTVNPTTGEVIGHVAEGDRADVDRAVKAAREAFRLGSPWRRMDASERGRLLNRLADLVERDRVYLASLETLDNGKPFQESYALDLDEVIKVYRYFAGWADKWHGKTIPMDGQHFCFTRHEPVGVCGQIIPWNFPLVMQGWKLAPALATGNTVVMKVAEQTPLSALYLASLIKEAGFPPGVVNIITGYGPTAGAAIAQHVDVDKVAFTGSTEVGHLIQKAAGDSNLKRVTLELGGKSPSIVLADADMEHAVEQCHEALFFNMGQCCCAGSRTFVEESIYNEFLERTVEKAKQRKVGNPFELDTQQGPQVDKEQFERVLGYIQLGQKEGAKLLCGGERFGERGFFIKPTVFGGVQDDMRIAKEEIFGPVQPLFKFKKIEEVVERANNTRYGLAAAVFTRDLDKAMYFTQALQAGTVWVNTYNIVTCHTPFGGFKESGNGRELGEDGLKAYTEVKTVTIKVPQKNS
# Description: ALDH1A3^−/− A375 cells were seeded into a 6-well plate at a density of 5×10^5 cells/well and cultured for 24 h. The cells were then transfected with either pCMV6-entry, pCMV6-GFP (Addgene, plasmid 11153), or pCMV-ALDH1B1. After 24 h, the media was replaced and transfection efficiencies were estimated by the EGFP-positive cells in the pCMV-GFP-transfected well. The cells were cultured for another 24 h and their ALDH activities were quantified using the ALDEFLUOR assay. Briefly, the cells were isolated from the plate with trypsin and resuspended in ALDEFLUOR assay buffer (STEMCELL Technologies) at a concentration of 4×10^5 cells/mL. Each ALDEFLUOR assay used 0.5 mL of this cell suspension, and the cells were treated with individual compounds for 15 min at 37° C. and 5% CO2. The cell suspensions were then treated with 2.5 μL ALDEFLUOR reagent and incubated for an additional 30 min at 37° C. and 5% CO2. The cells were then collected by centrifugation (450×g) for 5 min at room temperature, resuspended in 200 μL assay buffer, and analyzed with an LSR II flow cytometer (BD Biosciences) at the Stanford FACS facility.
# NIH-3T3 cells = assay: Seahorse oxygen-consumption-rate assay (NIH3T3); type: cell-based, murine; details: Mus musculus
# ALDH1B1 [3] = molecular target: T1, ALDH1B1; assay: ALDH1B1 enzyme kinetics assay (NADH fluorescence, acetaldehyde substrate); type: biochemical; set-up: made in house; host or cells: E. coli BL21 (optionally co-expressed with GroEL/GroES); details: for pIC50: 1 μg/mL enzyme, 1 mM acetaldehyde, 1 mM NAD+, read-out: ALDH1B1(in vitro) IC50
# Description: Cloning, expression, and purification of human recombinant ALDH1A1, ALDH1A3, ALDH2, ALDH3A1, ALDH3A2, ALDH4A1, ALDH5A1 and ALDH7A1 isozymes were conducted as described previously (Chen, C. H. et al. (2015) Proc. Natl. Acad. Sci. U.S.A. 112, 3074-3079). Human ALDH1A2 (Origene, SC109995) and ALDH1B1 (T. Hurley, Indiana University) plasmids were cloned into the pET-15b expression vector (Novagen, 69661-3) containing an N-terminal hexahistidine tag. The mitochondria-targeting sequence of ALDH1B1 was also removed. For protein expression without chaperones, the pET-15b based plasmids were transformed into competent BL21 E. coli cells, which were subsequently grown in 1 L of Luria-Bertani medium containing 100 μg/mL ampicillin at 37° C. Once the OD600 value reached 0.6, the culture was transferred to 16° C. and 0.5 mM isopropyl β-d-1-thiogalactopyranoside was introduced to induce protein expression overnight. The bacteria were then pelleted by centrifugation (3000×g, 4° C. for 30 rain) and harvested. 40 mL BugBuster Master Mix buffer (MilliporeSigrna) containing a protease inhibitor cocktail (cOmplete; Roche) was added, and the cells were lysed by mechanically rolling the suspension at room temperature for 25 min. The lysate was centrifuged (16000×g, 4° C. for 30 min), and the soluble fraction was collected and mixed with 2 mL of Ni-NTA Superflow resin (Qiagen). After the mixture was avowed to rock at 4° C. for 1 h, it was used to create a 10-mL gravity column, which was sequentially treated with 40 mL of wash buffer 1 (20 mM sodium phosphate, 500 mM NaCl, 1 mM DTT, 20 mM imidazole, 5% glycerol, pH 7.4) and 25 mL of wash buffer 2 (20 mM sodium phosphate, 500 mM NaCl, 1 mM DTT, 40 mM imidazole, 5% glycerol, pH 7.4). The hexahistidine-tagged protein was then recovered by treated the column with 5 mL elution buffer (20 mM sodium phosphate, 500 mM NaCl, 1 mM DTT, 400 mM imidazole, 5% glycerol, pH 7.4) and collecting 500-μL fractions. The protein concentration for each fraction was measured (500 μL elution volume was collected as one fraction and was immediately mixed with 500 μL glycerol. The protein concentration for each fraction was measured (600 nm Protein Assay Reagent; Thermo Fisher Scientific), and protein-containing fractions were diluted with an equal volume of glycerol and stored at −80° C. Samples from each step were also collected for SDS-PAGE gel analysis. For ALDH1B1 protein co-expression with chaperones, pET-15b-ALDH1B1 and GroEL/GroES (Addgene, plasmid pBB541) plasmids were co-transformed into competent BL21 E. coli cells, which were subsequently grown in 1 L of Luria-Bertani medium containing 100 μg/mL ampicillin and 50 μg/mL spectinomycin at 37° C. The hexahistidine-tagged ALDH1B1 protein was then expressed and purified as described above.
# To evaluate compound activities against ALDH isoforms, reaction mixtures consisting of enzyme assay buffer (100 mM sodium phosphate, 1 mM MgCl2, pH 8.0) and 0.1% DMSO, 1 mM β-mercaptoethanol, 1 mM NAD^+, and the bacterially expressed protein were prepared in white opaque 96-well assay plates (100 μL/well, flat-bottom and non-treated; Corning Costar). 5 μg/mL ALDH enzyme was used for single-dose (1, 10, 50 μM) compound test, and 1 μg/mL ALDH enzyme was used for IC50s determination. Acetaldehyde was then added to each well to achieve an initial substrate concentration of 1 mM, and the resulting enzymatic activity was measured based on NADH fluorescence. The fluorescence signal was read over the course of 10 min on a SpectraMax M2e microplate reader (340-nm excitation and 460-nm emission; Molecular Devices) operated by SoftMax Pro software. Compound activities were normalized to a DMSO control, and dose-response inhibition curves were fitted with four-parameter non-linear regression using Prism software. […]
# [4] = HEK-293T cytotoxicity (cell viability) assay; type: cell-based; details: human, HEK-293T cells; adherent HEK-293T, 4-5 days, CellTiter-Glo; read-out: HEK293T GI50
# Description: HEK-293T cells were seeded into a 96-well plate at a density of 5×10^3 cells/well and treated with varying concentrations of selected compounds or an equivalent amount of DMSO vehicle. The cells were cultured for 4-5 days without a media change, and after the DMSO-treated cells approached 100% confluence, the cell viabilities were measured using a CellTiter-Glo 3D Cell Viability Assay kit (Promega) and a Veritas microplate luminometer (Turner BioSystems) as described above.
# ALDH2 = molecular target: T2, ALDH2 (Homo sapiens, UniProt P05091); assay: ALDH2 enzyme kinetics assay; type: biochemical; details: 50-μM compound concentration
# T2 construct: made in house
# T2 sequence (P05091 18-517): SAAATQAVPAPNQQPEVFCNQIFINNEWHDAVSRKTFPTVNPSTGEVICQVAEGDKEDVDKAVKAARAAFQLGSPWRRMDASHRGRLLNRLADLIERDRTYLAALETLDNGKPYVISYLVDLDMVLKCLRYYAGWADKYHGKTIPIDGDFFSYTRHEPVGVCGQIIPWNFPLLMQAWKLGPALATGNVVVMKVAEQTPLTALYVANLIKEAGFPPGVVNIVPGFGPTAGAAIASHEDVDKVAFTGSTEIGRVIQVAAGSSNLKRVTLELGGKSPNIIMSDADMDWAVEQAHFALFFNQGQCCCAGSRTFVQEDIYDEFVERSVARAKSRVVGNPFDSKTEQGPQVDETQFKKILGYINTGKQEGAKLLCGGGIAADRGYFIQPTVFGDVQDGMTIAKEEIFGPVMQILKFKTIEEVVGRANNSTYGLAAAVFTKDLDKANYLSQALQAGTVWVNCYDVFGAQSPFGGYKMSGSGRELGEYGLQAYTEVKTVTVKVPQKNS
# Description: (§1) Cloning, expression, and purification of human recombinant ALDH1A1, ALDH1A3, ALDH2, ALDH3A1, ALDH3A2, ALDH4A1, ALDH5A1 and ALDH7A1 isozymes were conducted as described previously (Chen, C. H. et al. (2015) Proc. Natl. Acad. Sci. U.S.A. 112, 3074-3079). Human ALDH1A2 (Origene, SC109995) and ALDH1B1 (T. Hurley, Indiana University) plasmids were cloned into the pET-15b expression vector (Novagen, 69661-3) containing an N-terminal hexahistidine tag. The mitochondria-targeting sequence of ALDH1B1 was also removed. […] The protein concentration for each fraction was measured (500 μL elution volume was collected as one fraction and was immediately mixed with 500 μL glycerol. The protein concentration for each fraction was measured (600 nm Protein Assay Reagent; Thermo Fisher Scientific), and protein-containing fractions were diluted with an equal volume of glycerol and stored at −80° C. Samples from each step were also collected for SDS-PAGE gel analysis. For ALDH1B1 protein co-expression with chaperones, pET-15b-ALDH1B1 and GroEL/GroES (Addgene, plasmid pBB541) plasmids were co-transformed into competent BL21 E. coli cells, which were subsequently grown in 1 L of Luria-Bertani medium containing 100 μg/mL ampicillin and 50 μg/mL spectinomycin at 37° C. […]
# ALDH1A3 = molecular target: T3, ALDH1A3 (Homo sapiens, UniProt P47895); assay: ALDH1A3 enzyme kinetics assay; type: biochemical; details: enzyme kinetics assays, 1-μM dose
# T3 construct: made in house
# T3 sequence (P47895 1-512): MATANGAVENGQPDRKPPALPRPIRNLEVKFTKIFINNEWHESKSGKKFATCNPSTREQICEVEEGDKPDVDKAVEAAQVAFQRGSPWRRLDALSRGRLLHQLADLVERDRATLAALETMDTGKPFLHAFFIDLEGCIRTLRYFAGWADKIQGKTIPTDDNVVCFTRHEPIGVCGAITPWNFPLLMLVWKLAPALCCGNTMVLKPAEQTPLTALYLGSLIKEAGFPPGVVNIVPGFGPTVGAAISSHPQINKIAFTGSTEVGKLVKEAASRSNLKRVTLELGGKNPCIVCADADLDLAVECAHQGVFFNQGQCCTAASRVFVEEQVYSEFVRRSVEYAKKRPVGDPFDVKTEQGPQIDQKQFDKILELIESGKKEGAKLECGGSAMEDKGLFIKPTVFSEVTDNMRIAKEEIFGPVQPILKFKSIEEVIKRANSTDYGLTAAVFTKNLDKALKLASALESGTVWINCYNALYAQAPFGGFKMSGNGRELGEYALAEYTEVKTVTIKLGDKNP
# Description: as §1
# SW480 cells (adherent) = assay: Cell viability assay, adherent SW480 cultures; type: cell-based, human; details: Homo sapiens, SW480, 168 h; adherent culture, 7 days
# Description: SW480 or HCT116 cells were seeded into regular or Matrigel-coated 96-well plates at a density of 1000 cells/well. The cells were cultured in the corresponding adherent or spheroid culture medium (200 μL/well) containing the designated compounds or an equivalent amount of DMSO vehicle. Each culture was maintained for 7 days, and then cell viabilities were measured using a CellTiter-Glo 3D Cell Viability Assay kit (Promega). Briefly, 100 μL of the culture medium was removed from each well and replaced with 100 μL 3D Cell Assay reagent. The cells in each well were next homogenized by vigorous pipetting, and the plate was incubated for 10 min at room temperature to stabilize the chemiluminescent signal. A 150-μL aliquot from each well was then transferred into a white opaque 96-well assay plate (flat-bottom and non-treated; Corning Costar) and luminescence intensities were measured with a Veritas microplate luminometer (Turner BioSystems).
structure (smiles),measurement,setting,value
"O=c1[nH]cc(F)c(=O)[nH]1 [Compound 5-FU, 5-fluorouracil]",loss of sensitivity of 5-FU-resistant SW480 line versus parental line,[1],50 fold
CCOc1ccc(N2C=C(c3ccc(-c4ccccc4)cc3)N3CCCCN=C32)cc1 [Guanidine 73],pIC50,ALDH1B1 [2],5.17
same,pIC50,NIH-3T3 cells,5.62
same,pIC50,ALDH1B1 [3],5.72
COc1ccccc1N1C=C(c2ccc(-c3ccccc3)cc2)N2CCCCN=C21 [HPI-269],pIC50,ALDH1B1 [2],6.96
same,GI50,[4],3400 nM
same,pIC50,NIH-3T3 cells,6.24
same,pIC50,ALDH1B1 [3],7.09
C#CCOc1ccc(-n2cc(-c3ccc(N=[N+]=[N-])cc3)[n+]3c2CCCCC3)cc1 [Imidazolium 3],inhibition of ALDH2 activity,ALDH2,only partially suppressed
COc1ccccc1-n1cc(-c2ccc(-c3ccc([N+](=O)[O-])cc3)cc2)[n+]2c1CCCCC2.[Br-] [Imidazolium 10],ALDH1A3 inhibition / isoform selectivity (in words),ALDH1A3,inhibitor of both ALDH1B1 and ALDH1A3
same,ALDH1B1 inhibition / isoform selectivity (in words),ALDH1B1 [3]; enzyme kinetics assays against ALDH isoforms,inhibitor of both ALDH1B1 and ALDH1A3
CCOc1ccc(-n2cc(-c3ccc(-c4ccc(C(=O)OC)cc4)cc3)[n+]3c2CCCCC3)cc1 [Imidazolium 46],ALDH1A3 inhibition / isoform selectivity (in words),ALDH1A3,ALDH1A3-specific inhibitor
c1ccc(-c2ccc(-c3cn(C4CCCCC4)c4[n+]3CCCCC4)cc2)cc1 [Imidazolium 53],pIC50,NIH-3T3 cells,6.77
same,GI50,SW480 cells (adherent),820 nM
